ChEMBL document CHEMBL3885861, “Open TG-GATES”

Organism: Rattus norvegicus
Assay: Open TG-GATES - Regimen: Single
Format: toxicity, organism-based, Sprague-Dawley
Design: regimen Single, gender Male, age 6 weeks
Details: in vivo, po, 6 mg/kg, route gavage, dose level High; for APTT / Bas / Eos / Fbg / Hb / Ht / Lym / MCH / MCHC / MCV / Mono / Neu / PT / Plat / RBC / Ret / WBC: tissue Blood; for KIDNEY_L / KIDNEY_R / KIDNEY_TOTAL: tissue Kidney; for LIVER: tissue Liver; for A/G / ALP / ALT / AST / BUN / CRE / Ca / Cl / DBIL / GLC / IP / K / LDH / Na / PL / RALB / TBIL / TC / TG / TP / gamma-GTP: tissue Plasma

`O=NN(CCCl)C(=O)NC1CCCCC1` [LOMUSTINE] gave a TERMINAL_BW (3 h) of 203.9 g, an APTT (3 h) of 16.2 s and a Bas (3 h) of 0%. For the same compound, the Eos (3 h) was 0.4%, the Fbg (3 h) was 212.6 mg/dL and the Hb (3 h) was 13.3 g/dL. For the same compound, the Ht (3 h) was 39.7%, the Lym (3 h) was 78.2% and the MCH (3 h) was 21.7 pg. It also gave an MCHC (3 h) of 33.4%, an MCV (3 h) of 64.8 fL and a Mono (3 h) of 9.4%. It also gave a Neu (3 h) of 12.2%, a PT (3 h) of 11.4 s and a Plat (3 h) of 106.7 x10_4/uL. The RBC (3 h) was 612.4 x10_4/ul, the Ret (3 h) was 8.5% and the WBC (3 h) was 112.2 x10_2/uL. The KIDNEY_L (3 h) was 0.9 g, the KIDNEY_R (3 h) was 0.9 g and the KIDNEY_TOTAL (3 h) was 1.9 g. It also gave an LIVER (3 h) of 10 g, an A/G (3 h) of 1.8 and an ALP (3 h) of 970.2 IU/L. The ALT (3 h) was 36.6 IU/L, the AST (3 h) was 67.6 IU/L and the BUN (3 h) was 13.8 mg/dL. For the same compound, the CRE (3 h) was 0.5 mg/dL, the Ca (3 h) was 11.3 mg/dL and the Cl (3 h) was 105.4 meq/L. It also gave a DBIL (3 h) of 0.028 mg/dL, a GLC (3 h) of 189.6 mg/dL and an IP (3 h) of 10.3 mg/dL. The K (3 h) was 4.7 meq/L, the LDH (3 h) was 161 IU/L and the Na (3 h) was 140.4 meq/L. For the same compound, the PL (3 h) was 134 mg/dL, the RALB (3 h) was 3.6 g/dL and the TBIL (3 h) was 0.3 mg/dL. The TC (3 h) was 73.8 mg/dL, the TG (3 h) was 56.2 mg/dL and the TP (3 h) was 5.6 g/dL. The gamma-GTP (3 h) was 1.6 IU/L, the TERMINAL_BW (6 h) was 201.4 g and the APTT (6 h) was 16.7 s. It also gave a Bas (6 h) of 0%, an Eos (6 h) of 0.4% and a Fbg (6 h) of 217.8 mg/dL. For the same compound, the Hb (6 h) was 13.1 g/dL, the Ht (6 h) was 39.4% and the Lym (6 h) was 78.6%. For the same compound, the MCH (6 h) was 22.2 pg, the MCHC (6 h) was 33.3% and the MCV (6 h) was 66.7 fL. The Mono (6 h) was 7.6%, the Neu (6 h) was 13.6% and the PT (6 h) was 12.1 s. It also gave a Plat (6 h) of 108.1 x10_4/uL, an RBC (6 h) of 591.6 x10_4/ul and a Ret (6 h) of 8.9%. It also gave a WBC (6 h) of 107.2 x10_2/uL, a KIDNEY_L (6 h) of 0.9 g and a KIDNEY_R (6 h) of 0.9 g. For the same compound, the KIDNEY_TOTAL (6 h) was 1.9 g, the LIVER (6 h) was 9.1 g and the A/G (6 h) was 1.9. For the same compound, the ALP (6 h) was 865 IU/L, the ALT (6 h) was 29.4 IU/L and the AST (6 h) was 66.2 IU/L. It also gave a BUN (6 h) of 10.4 mg/dL, a CRE (6 h) of 0.5 mg/dL and a Ca (6 h) of 11 mg/dL. It also gave a Cl (6 h) of 104.8 meq/L, a DBIL (6 h) of 0.008 mg/dL and a GLC (6 h) of 191.8 mg/dL. The IP (6 h) was 10.5 mg/dL, the K (6 h) was 4.7 meq/L and the LDH (6 h) was 152.6 IU/L. It also gave a Na (6 h) of 139.4 meq/L, a PL (6 h) of 132.2 mg/dL and an RALB (6 h) of 3.6 g/dL. The TBIL (6 h) was 0.3 mg/dL, the TC (6 h) was 76 mg/dL and the TG (6 h) was 36.6 mg/dL. It also gave a TP (6 h) of 5.6 g/dL, a gamma-GTP (6 h) of 1.8 IU/L and a TERMINAL_BW (9 h) of 203.2 g. The APTT (9 h) was 16.7 s, the Bas (9 h) was 0% and the Eos (9 h) was 0.4%. The Fbg (9 h) was 224.6 mg/dL, the Hb (9 h) was 13.2 g/dL and the Ht (9 h) was 40.1%. It also gave a Lym (9 h) of 79.2%, an MCH (9 h) of 21.9 pg and an MCHC (9 h) of 32.9%. The MCV (9 h) was 66.5 fL, the Mono (9 h) was 5.8% and the Neu (9 h) was 15%. For the same compound, the PT (9 h) was 12.2 s, the Plat (9 h) was 104.4 x10_4/uL and the RBC (9 h) was 603 x10_4/ul. It also gave a Ret (9 h) of 9.2%, a WBC (9 h) of 97 x10_2/uL and a KIDNEY_L (9 h) of 1 g. For the same compound, the KIDNEY_R (9 h) was 1 g, the KIDNEY_TOTAL (9 h) was 1.9 g and the LIVER (9 h) was 8.7 g. It also gave an A/G (9 h) of 2.2, an ALP (9 h) of 889.4 IU/L and an ALT (9 h) of 31.4 IU/L. It also gave an AST (9 h) of 67 IU/L, a BUN (9 h) of 13 mg/dL and a CRE (9 h) of 0.5 mg/dL. For the same compound, the Ca (9 h) was 10.9 mg/dL, the Cl (9 h) was 106.4 meq/L and the DBIL (9 h) was 0.028 mg/dL. For the same compound, the GLC (9 h) was 190.8 mg/dL, the IP (9 h) was 11.3 mg/dL and the K (9 h) was 5 meq/L. For the same compound, the LDH (9 h) was 139.4 IU/L, the Na (9 h) was 140 meq/L and the PL (9 h) was 139.4 mg/dL. It also gave an RALB (9 h) of 3.9 g/dL, a TBIL (9 h) of 0.3 mg/dL and a TC (9 h) of 78.2 mg/dL. It also gave a TG (9 h) of 39.8 mg/dL, a TP (9 h) of 5.7 g/dL and a gamma-GTP (9 h) of 1.4 IU/L. It also gave a TERMINAL_BW (24 h) of 212 g, an APTT (24 h) of 15.7 s and a Bas (24 h) of 0%. The Eos (24 h) was 0.4%, the Fbg (24 h) was 214.2 mg/dL and the Hb (24 h) was 13.1 g/dL. For the same compound, the Ht (24 h) was 39.2%, the Lym (24 h) was 84.4% and the MCH (24 h) was 21.5 pg. It also gave an MCHC (24 h) of 33.2%, an MCV (24 h) of 64.7 fL and a Mono (24 h) of 7%. The Neu (24 h) was 7.8%, the PT (24 h) was 12.3 s and the Plat (24 h) was 107.2 x10_4/uL. It also gave an RBC (24 h) of 606.6 x10_4/ul, a Ret (24 h) of 8.4% and a WBC (24 h) of 121.5 x10_2/uL. The KIDNEY_L (24 h) was 1 g, the KIDNEY_R (24 h) was 1 g and the KIDNEY_TOTAL (24 h) was 2 g. For the same compound, the LIVER (24 h) was 10.5 g, the A/G (24 h) was 2 and the ALP (24 h) was 873 IU/L. The ALT (24 h) was 35.2 IU/L, the AST (24 h) was 66.6 IU/L and the BUN (24 h) was 17.4 mg/dL. It also gave a CRE (24 h) of 0.5 mg/dL, a Ca (24 h) of 11.2 mg/dL and a Cl (24 h) of 105.2 meq/L. For the same compound, the DBIL (24 h) was 0.014 mg/dL, the GLC (24 h) was 180.4 mg/dL and the IP (24 h) was 8.1 mg/dL. The K (24 h) was 4.7 meq/L, the LDH (24 h) was 106.2 IU/L and the Na (24 h) was 137.8 meq/L. The PL (24 h) was 144.6 mg/dL, the RALB (24 h) was 3.9 g/dL and the TBIL (24 h) was 0.3 mg/dL. It also gave a TC (24 h) of 78.8 mg/dL, a TG (24 h) of 71.4 mg/dL and a TP (24 h) of 5.8 g/dL. The gamma-GTP (24 h) was 1.4 IU/L.
